The values that follow come from patent US20240335371A1, “MAGNESIUM SULFATE AND FORSKOLIN FOR TREATMENT OF SEXUAL DISORDERS AND BENIGN PROSTATIC HYPERPLASIA” (State-of-the-Art Technologies, Inc., priority 2023, published 2024).

One data set concerns female low libido. Particulars: cited from earlier work; for side effects: in vivo.
A further data set concerns ED. Particulars: cited from earlier work.
The test system of data set [1] is penis or female genitalia. In words: Topical or transdermal administration of magnesium sulfate or forskolin to male and female subjects. The source says:
The composition is generally applied generously to the penis and massaged thoroughly. In females, the composition may be applied to the female genitals and massaged. In various embodiments, the composition may also be applied on a penis or sex toy or suppository inserted into the vagina or ano-rectal region, or as a condom lubricant, penile lubricant, vaginal lubricant or anal lubricant.

The conditions of data set [2]: cited from earlier work.

Where two headings read alike, the source gives them in different places.

Regarding `CCCC[C@H](NC(C)=O)C(=O)N[C@H]1CC(=O)NCCCC[C@@H](C(=O)O)NC(=O)[C@H](Cc2c[nH]c3ccccc23)NC(=O)[C@H](CCCN=C(N)N)NC(=O)[C@@H](Cc2ccccc2)NC(=O)[C@H](Cc2cnc[nH]2)NC1=O` [Bremelanotide], the side effects entry in the data set with female low libido is “Nausea is a common side effect”. For the same molecule, in the data set with female low libido (self-administered injection about 45 minutes before a sexual encounter), the “effect on number of satisfying sexual events compared to placebo” value was “minimal effect”. With `CCCCC[C@H](O)/C=C/[C@H]1[C@H](O)CC(=O)[C@@H]1CCCCCCC(=O)O` [alprostadil], in the data set with ED (intraurethral deposition), the “efficacy in ED” value is “not effective in all patients”. Turning to `CN1CCc2cccc3c2[C@H]1Cc1ccc(O)c(O)c1-3` [apomorphine], the “efficacy in ED” value with ED (oral and sublingual therapies) is “neither compound has demonstrated efficacy across a broad range of subjects”. As for `O=c1[nH]c2ccccc2n1CCN1CCN(c2cccc(C(F)(F)F)c2)CC1` [flibanserin], the side effects entry in the data set on female low libido is “sleepiness and fainting”. Besides, in the data set with female low libido (oral pill taken daily), the “effect compared to placebo” value is given as “minimal compared to placebo”. For `C=C[C@@]1(C)CC(=O)[C@]2(O)[C@@]3(C)[C@@H](O)CCC(C)(C)[C@@H]3[C@H](O)[C@H](OC(C)=O)[C@@]2(C)O1` [forskolin, 7beta-acetoxy-8, 13-epoxy-1a, 6β, 9a-trihydroxy-labd-14-en-11-one], the “systemic side effects or drug interactions” value in data set [1] (human, in vivo) was “no systemic side effects or drug interactions”. The lipid solubility entry in data set [2] is given as “lipid-soluble”. In addition, the solubility in water result in data set [2] (water) is recorded as “water soluble”.

On to `O=[N+]([O-])OCC(CO[N+](=O)[O-])O[N+](=O)[O-]` [glyceryl trinitrate (GTN), glyceryl trinitrate], for which the “efficacy in ED and side effects” value in the data set on ED (patches applied to the penis) was “effective but produces side effects in both patient and partner”.

For `O=S(=O)([O-])[O-].[Mg+2]` [magnesium sulfate], the “systemic side effects or drug interactions” value in data set [1] (administered topically or by transdermal delivery) is on record as “no systemic side effects or drug interactions”. Besides, in data set [1] (topical administration), the “taste of magnesium in mouth after topical administration (increased blood levels)” value is reported as “tasted magnesium in their mouth within one minute”. Also, the testosterone and libido entry in data set [1] (topical or transdermal administration, males and females) was “increased testosterone with increased libido in both males and females lasting for several weeks”. Also, the “increase in penile length, size and turgidity versus control gel (KY jelly)” value in data set [1] (topical or transdermal application to the penis) is given as “significantly exceeds that obtained by topical or transdermal application of a control gel”. In the case of `Cc1ccc(N(CC2=NCCN2)c2cccc(O)c2)cc1` [phentolamine], in the data set with ED (oral and sublingual therapies), the “efficacy in ED” value is “neither compound has demonstrated efficacy across a broad range of subjects”.
